For assay [1], the target named is T1, horse serum BChE (hsBChE) (Equus caballus, UniProt P81908).
T1 construct: horse serum BChE (hsBChE); purchased Sigma-Aldrich; host or cells: horse serum
The following applies: previously reported; read-out: Enzyme Inhibition hsBChE IC50; cited from earlier work.

The target in assay [2] is T2, electric eel AChE (eeAChE) (Electrophorus electricus, UniProt O42275).
T2 construct: purchased Sigma-Aldrich
Particulars: previously reported; read-out: Enzyme Inhibition eeAChE IC50; cited from earlier work.

Assay [3] has as its target T3, human placenta GST (hGST) (Homo sapiens, UniProt P09211).
T3 construct: human placenta GST (hGST); purchased Sigma-Aldrich; host or cells: human placenta
Particulars: previously reported; read-out: Enzyme Inhibition hGST IC50; cited from earlier work.

Assay [4] has as its system horse liver GST (hlGST). Particulars: previously reported, cited from earlier work; for IC50: read-out: Enzyme Inhibition hlGST IC50.
Assay [5] has as its target T2, electric eel AChE (eeAChE). Kind of assay: Cholinesterase inhibition assay (modified Ellman method), eeAChE. The assay is classed as biochemical. The following applies: for IC50: mean ± SEM of three independent measurements, / = No activity, read-out: Enzyme Inhibition eeAChE IC50; for type of inhibition of eeAChE: Dixon plots. On the procedure: (§1) The activities of the ChEs were determined using a modification of the Ellman method adapted for microtiter plates, as described in [47]. Stock solutions of complexes 4, 5, 6, 7, 8 and 10, as well as of ligands L2 and L3 (1 mg/mL) were prepared in 100% MeOH, whereas stock solutions of complexes 2 and 3 (1 mg/mL) were prepared in 5% DMSO in deionised water. Positive control (1 mg/mL neostigmine bromide; Sigma-Aldrich, St. Louis, MO, USA) was also prepared in 100% MeOH. The stock solutions of the potential inhibitors and the positive and negative controls were added to the wells, and progressively diluted in 100 mM potassium phosphate buffer (pH 7.4) to the final volume of 50 μL. Then, 100 μL acetylthiocholine chloride (1 mM) and 5,5′-dithiobis-2-nitrobenzoic acid (0.5 mM) in 100 mM potassium phosphate buffer (pH 7.4) were added into the microtiter plate wells. Three ChEs were used as the enzyme sources: electric eel AChE (eeAChE); human recombinant AChE (hrAChE), and horse serum BChE (hsBChE) (all Sigma-Aldrich, St. Louis, MO, USA). These were dissolved in the same buffer to the final concentration of 0.0075 U/mL. Finally, 50 μL of each ChE solution was added into the microtiter plate wells to start the reaction, which was followed spectrophotometrically at 405 nm at 25 °C over 5 min using a kinetic microplate reader (Dynex Technologies Inc., Chantilly, VA, USA). The blank reactions without the inhibitors were run with the appropriate dilutions of the solvents in which the tested compounds were initially diluted (100% MeOH or 5% aqueous DMSO), and the readings were corrected according to the appropriate blanks. Each measurement was repeated at least three times. […] The data were analysed using the OriginPro software (OriginPro 2020, OriginLab Corporation, Northampton, MA, USA).
On the technique in general: DTNB colorimetry detects thiols as they appear.

Assay [6] addresses T3, human placenta GST (hGST). The experiment in a line: Glutathione S-transferase inhibition assay (Habig method), hGST. The assay is classed as biochemical. Particulars: for IC50: mean ± SEM of three independent measurements, / = No activity, read-out: Enzyme Inhibition hGST IC50; for type of inhibition of hGST: Dixon plots; for Ki: determined for compounds with IC50 < 33 μM, substrate 200, 400, 800 μM, read-out: Enzyme Inhibition hGST Ki. On the procedure: (§2) The activities of the GSTs were determined according to the method described by Habig et al. (1974) using a cell imaging multi-mode reader (Cytation 3; BioTek, Winooski, VT, USA). The stock solutions of inhibitors were prepared as described for the ChE inhibition assays. Then the stock solutions of the potential inhibitors and negative controls were added to the wells, and progressively diluted in 100 mM sodium phosphate buffer (pH 6.5) to the final volume of 50 μL. 1-Chloro-2,4-dinitrobenzene (Sigma-Aldrich, St. Louis, MO, USA) was dissolved in ethanol to 50 mM, and then diluted with 100 mM sodium phosphate buffer (pH 6.5) to a final concentration of 4 mM. This solution (50 μL) and 2 mM reduced glutathione (100 μL) in the same buffer were added into the microtiter plate wells. Two GSTs were used as the enzyme sources: horse liver GST (hlGST) and human placenta GST (hGST) (Sigma-Aldrich, St. Louis, MO, USA). These were dissolved in 100 mM sodium phosphate buffer (pH 6.5), and 50 μL of these enzyme solutions were added into the wells to start the reaction. The final enzyme concentration was 0.044 U/mL. The blank reactions without the inhibitors were run with the appropriate dilutions of the solvents in which the tested compounds were initially diluted (100% MeOH or 5% aqueous DMSO), and the readings were corrected according to the appropriate blanks. The reactions were followed spectrophotometrically at 340 nm at 25 °C over 4 min. Each measurement was repeated at least three times. […] The data were analysed using the OriginPro software (OriginPro 2020, OriginLab Corporation, Northampton, MA, USA).

Assay [7] deals with T1, horse serum BChE (hsBChE). The experiment in a line: Cholinesterase inhibition assay (modified Ellman method), hsBChE. The assay is classed as biochemical. The following applies: for type of inhibition of hsBChE: Dixon plots; for IC50: mean ± SEM of three independent measurements, / = No activity, read-out: Enzyme Inhibition hsBChE IC50. On the procedure:
as §1

For assay [8], the target named is T4, human recombinant AChE (hrAChE) (Homo sapiens, UniProt P22303).
T4 construct: purchased Sigma-Aldrich
T4 sequence (P22303 32-614): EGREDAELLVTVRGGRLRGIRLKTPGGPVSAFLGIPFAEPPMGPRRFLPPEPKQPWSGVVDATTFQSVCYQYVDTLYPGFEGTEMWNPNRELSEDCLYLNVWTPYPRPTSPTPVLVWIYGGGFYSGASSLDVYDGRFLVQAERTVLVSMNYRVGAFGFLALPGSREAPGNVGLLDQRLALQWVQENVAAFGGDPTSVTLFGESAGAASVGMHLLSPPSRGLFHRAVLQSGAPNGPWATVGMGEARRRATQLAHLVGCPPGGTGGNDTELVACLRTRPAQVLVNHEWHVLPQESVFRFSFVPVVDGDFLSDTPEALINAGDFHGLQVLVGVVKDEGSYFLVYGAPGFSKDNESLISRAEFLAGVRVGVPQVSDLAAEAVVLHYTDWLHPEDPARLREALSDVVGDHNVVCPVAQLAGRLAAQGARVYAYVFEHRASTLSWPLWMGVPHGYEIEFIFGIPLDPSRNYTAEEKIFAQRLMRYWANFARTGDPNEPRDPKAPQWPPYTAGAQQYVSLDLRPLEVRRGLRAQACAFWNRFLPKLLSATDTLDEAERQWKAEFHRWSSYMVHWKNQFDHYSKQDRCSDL
Kind of assay: Cholinesterase inhibition assay (modified Ellman method), hrAChE. The following applies: for IC50: mean ± SEM of three independent measurements, / = No activity, read-out: Enzyme Inhibition hrAChE IC50; for type of inhibition of hrAChE: Dixon plots. The class given is biochemical. On the procedure:
as §1

Assay [9] has as its target horse liver GST (hlGST). Kind of assay: Glutathione S-transferase inhibition assay (Habig method), hlGST. The assay is classed as biochemical. The following applies: for IC50: mean ± SEM of three independent measurements, / = No activity, read-out: Enzyme Inhibition hlGST IC50; for type of inhibition of hlGST: Dixon plots; for Ki: determined for compounds with IC50 < 33 μM, substrate 200, 400, 800 μM, read-out: Enzyme Inhibition hlGST Ki. As to the method:
as §2

For assay [10], the target named is T4, human recombinant AChE (hrAChE). Particulars: previously reported; read-out: Enzyme Inhibition hrAChE IC50; cited from earlier work.

Where two headings read alike, the source gives them in different places. Some results are limits rather than exact numbers.

By IC50 is commonly meant the midpoint of a concentration-inhibition curve. By Ki is commonly meant a measure of affinity in units of concentration, obtained from inhibition or displacement.

T3 sequence (P09211 2-210 limits assumed): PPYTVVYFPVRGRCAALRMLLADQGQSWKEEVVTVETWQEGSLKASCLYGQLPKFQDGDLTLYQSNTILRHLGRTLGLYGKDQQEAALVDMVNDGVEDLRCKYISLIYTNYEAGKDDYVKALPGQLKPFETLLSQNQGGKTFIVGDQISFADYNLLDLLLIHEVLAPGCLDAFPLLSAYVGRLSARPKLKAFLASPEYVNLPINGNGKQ
T1 sequence (P81908 whole entry): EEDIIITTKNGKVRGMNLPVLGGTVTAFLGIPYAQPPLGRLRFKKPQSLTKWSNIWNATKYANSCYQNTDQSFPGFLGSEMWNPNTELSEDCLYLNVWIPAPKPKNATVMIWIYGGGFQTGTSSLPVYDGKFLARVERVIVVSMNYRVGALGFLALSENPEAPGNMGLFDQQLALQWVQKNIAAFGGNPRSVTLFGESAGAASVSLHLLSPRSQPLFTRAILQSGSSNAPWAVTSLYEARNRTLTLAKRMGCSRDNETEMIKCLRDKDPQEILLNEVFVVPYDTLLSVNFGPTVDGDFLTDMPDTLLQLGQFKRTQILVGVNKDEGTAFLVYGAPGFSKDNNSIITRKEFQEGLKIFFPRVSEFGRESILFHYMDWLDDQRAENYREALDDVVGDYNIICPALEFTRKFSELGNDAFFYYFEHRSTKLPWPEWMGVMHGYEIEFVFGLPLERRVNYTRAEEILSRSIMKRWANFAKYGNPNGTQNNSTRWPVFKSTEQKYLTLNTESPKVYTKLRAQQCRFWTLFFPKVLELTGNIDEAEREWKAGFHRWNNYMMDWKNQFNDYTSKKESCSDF
T2 sequence (O42275 24-633): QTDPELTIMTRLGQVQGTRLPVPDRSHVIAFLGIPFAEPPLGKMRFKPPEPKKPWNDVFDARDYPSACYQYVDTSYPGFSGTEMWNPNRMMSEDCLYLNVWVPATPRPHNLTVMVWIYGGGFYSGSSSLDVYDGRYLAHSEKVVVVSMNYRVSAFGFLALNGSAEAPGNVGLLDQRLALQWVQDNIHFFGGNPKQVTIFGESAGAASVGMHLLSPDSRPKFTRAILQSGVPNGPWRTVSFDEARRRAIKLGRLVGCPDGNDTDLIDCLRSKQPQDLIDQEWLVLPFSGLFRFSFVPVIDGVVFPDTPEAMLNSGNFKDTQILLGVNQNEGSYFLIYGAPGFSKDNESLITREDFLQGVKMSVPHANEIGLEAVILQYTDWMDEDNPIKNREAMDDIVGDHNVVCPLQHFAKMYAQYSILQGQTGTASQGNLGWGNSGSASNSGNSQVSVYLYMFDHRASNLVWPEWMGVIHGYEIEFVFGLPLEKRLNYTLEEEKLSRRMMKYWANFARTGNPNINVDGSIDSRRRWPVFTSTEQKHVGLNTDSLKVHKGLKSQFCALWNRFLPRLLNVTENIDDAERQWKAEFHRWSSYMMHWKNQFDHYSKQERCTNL

Regarding “1-hydroxypyridine-2(1H)-thione [Complex L1]”, the IC50 (in [1]; in assay [2]; in assay [3]; in the assay on horse liver GST (hlGST) [4]) was more than 100 µM each time.
For `Cc1ccc(C(C)C)cc1.FC(F)(F)C1=[O+][Ru-]([P+]23CN4CN(CN(C4)C2)C3)[O]C(c2ccccc2Br)=C1.F[P-](F)(F)(F)(F)F` [Complex 7, [RuCym(L2)pta]PF6], the IC50 in [5] was more than 100 µM; in assay [6], more than 100 µM; in [7], 19.2 ± 1.5 µM; in assay [8], more than 100 µM; on horse liver GST (hlGST) [9] it was more than 100 µM. Further, the “type of inhibition of hsBChE” value in assay [7] was “reversible and competitive”. Besides, the Ki in [7] (determined for compounds with IC50 < 33 μM, substrate 0.125, 0.25, 0.5 mM, read-out: Enzyme Inhibition hsBChE Ki) came out at 9.26 µM.
Take `O=[C]=[Ru-2]12(=[C]=O)([O][n+]3ccccc3[S]1)[O][n+]1ccccc1[S]2` [Complex 8, [Ru(L1)2(CO)2]]: the IC50 in assay [5] was more than 100 µM; in [6] it was 16.6 ± 1.4 µM; in [7], more than 100 µM; in assay [8] it was more than 100 µM. In addition, the “type of inhibition of hGST” value in [6] was “reversible and competitive”. The values for the Ki (in assay [6]; on horse liver GST (hlGST) [9]) were 9.65 µM and 0.85 µM, respectively. Besides, in the assay with horse liver GST (hlGST) [9], the “type of inhibition of hlGST” value was “reversible and competitive”.
With `O=C(CC(=O)C(F)(F)F)c1ccccc1Br` [Complex L2, 1-(2-bromophenyl)-4,4,4-trifluorobutane-1,3-dione, reference compound], the IC50 (in [5]; in assay [6]; in assay [7]; in assay [8]; on horse liver GST (hlGST) [9]) was more than 100 µM throughout.
As for `CCCCCCCCCCCCCCCCCC(=O)CC(=O)c1ccccc1` [Complex L3, 1-phenylicosane-1,3-dione, reference compound], the IC50 (in assay [5]; in assay [6]; in assay [7]; in [8]; on horse liver GST (hlGST) [9]) was more than 100 µM in each case.
As to `CN(C)C(=O)Oc1cccc([N+](C)(C)C)c1` [Neostigmine methylsulphate, reference compound], the IC50 in assay [5] is 5.98 ± 1 µM; in assay [6], more than 100 µM; in assay [7], 92.7 ± 2.2 µM; at horse liver GST (hlGST) [9], more than 100 µM.
As for `Cc1ccc(C(C)C)cc1.Cc1ccc(C(C)C)cc1.[Cl][Ru][Cl].[Cl][Ru][Cl]` [Precursor 9, dichloro(p-cymene) ruthenium(II) dimer [Ru(p-cymene)Cl2]2], the IC50 in [1] was 32.7 ± 4.3 µM; in assay [2] it was more than 100 µM; in assay [10], more than 100 µM; in assay [3], more than 100 µM; in the assay on horse liver GST (hlGST) [4] it was more than 100 µM.
For [RuCym(L1)Br] [Complex 2], the “type of inhibition of eeAChE” value in assay [5] is “reversible and competitive”. Moreover, in [6], the “type of inhibition of hGST” value is “reversible and competitive”; the Ki worked out at 4.08 µM; the IC50 was 4.64 ± 3.7 µM. The “type of inhibition of hsBChE” value in [7] is “reversible and competitive”. Moreover, in assay [8], the “type of inhibition of hrAChE” value was “reversible and competitive”. Moreover, in the assay on horse liver GST (hlGST) [9], the “type of inhibition of hlGST” value is “reversible and competitive”; the Ki was 0.79 µM.
Regarding [RuCym(L1)Cl] [Complex 1], the IC50 in [3] is 45 ± 5.2 µM; with horse liver GST (hlGST) [4], 2.26 ± 0.5 µM. For the same compound, on horse liver GST (hlGST) [4] (read-out: Enzyme Inhibition hlGST Ki), the Ki is 10 µM.
[RuCym(L1)I] [Complex 3]: in assay [5], the “type of inhibition of eeAChE” value is “reversible and competitive”. For the same compound, in assay [6], the “type of inhibition of hGST” value was “reversible and competitive”; the inhibition constant Ki came to 8.6 µM; the IC50 worked out at 16 ± 3 µM. For the same compound, the “type of inhibition of hsBChE” value in [7] is “reversible and competitive”. The “type of inhibition of hrAChE” value in assay [8] was “reversible and competitive”. In addition, in the assay on horse liver GST (hlGST) [9], the “type of inhibition of hlGST” value is “reversible and competitive”; the Ki came to 1.6 µM.
Consider [RuCym(L1)pta]PF6 [Complex 6], for which the IC50 at horse liver GST (hlGST) [9] was more than 100 µM.
Consider “tricarbonyldichlororuthenium(II) dimer [Ru(CO)3Cl2]2 [Precursor 10, reference compound]”, for which, in [6], the “inhibition of hGST (in words)” value was “only weakly” and the IC50 came to 97.7 ± 1 µM. On horse liver GST (hlGST) [9], the Ki stood at 2.93 µM and the IC50 was 9.76 ± 0.4 µM.

Source of the values: PMC8467340, “Fine Tuning of Cholinesterase and Glutathione-S-Transferase Activities by Organoruthenium(II) Complexes” (Biomedicines, 2021).
